Like-named read-outs stand apart in the source and are kept apart here.
Tests used:
Dopamine Receptors [1] = type: binding, calf; conditions: ligand [3H]APO (0.5 nM)
Dopamine Receptors [2] = type: binding, calf; conditions: ligand [3H]ADTN (0.5 nM)
[3] = system: dopamine (DA) receptors in the limbic system and basal ganglia; assay: Total motor activity, electronic activity monitor (EAM); type: in vivo, rat
Method: (§1) Activity: Overall motor activity was measured by use of the self-recording Stoelting electronic activity monitor method described previously by Stewart, Campbell, Sperk, and Baldessarini^9. Total activity is obtained by setting monitor sensitivity so as to detect both locomotion and small movements (such as grooming, sniffing, and chewing) as would be prominent in stereotyped responses that tend to diminish locomotion and increase sniffing, licking, and chewing movements. Locomotor activity is detected selectively by setting monitor sensitivity to detect large, locomotor movements, and to minimize smaller movements already described.
(§2) All data presented in the Tables below are expressed as the mean results from 4-6 rats per condition, ±S.E.M. Stereotypy is expressed in rating units (maximum=3.0) and activity is expressed in arbitrary units of percent change, derived from EAM counts per unit time, relative to activity in control (saline) animals set at zero.
All the posttreatment doses of (+)APO were 3.0 mg/kg, s.c. The data
All posttreatment doses of (+)NPA were 3 mg/kg, s.c. The data are similar

[4] = system: dopamine (DA) receptors in the limbic system; assay: Locomotor activity (spontaneous or aroused by (-)APO / (-)NPA), electronic activity monitor; type: in vivo, rat
Method: as §1
Rats (mean N=6 per condition) were tested for locomotor activity for 60 min following a single dose of (-)APO (0.3 mg/kg, SC), or its vehicle ("placebo" condition). The S(+) isomers were administered in a range of doses from 0 or 0.1 to 30 mg/kg, SC immediately following injection of (-)APO or its vehicle. Data are presented in FIG. 2 as mean EAM activity counts per hour SEM. In that figure, the dashed line labeled "control" represents the mean activity of rats given vehicle only and no aporphine (SD values are indicated by parallel light lines above and below the control mean).
Test agents (11substituted-N--propylnoraporphine isomers were given at a
dose of 3 mg/kg, ip (in 2 ml/kg) just prior to (-)apomorphine (APO, at 0.
mg/kg, ip, in 1 ml/kg) to rats (N = 6) tested in an electronic activity

[5] = system: DA in the limbic system (nucleus accumbens septi); assay: Arousal (locomotor activity) induced by DA injected into nucleus accumbens septi; type: in vivo, rat; conditions: for activity counts (arousal induced by 16 μg DA in accumbens): 30 min, DA control 238 ± 38
Method: An experiment shown in Table 9 involves testing the effects of S(+) isomers of apomorphine (APO) and N-propylnorapomorphine (NPA) given systemically (intraperitoneally, ip), as well as S(+) methylenedioxy-N-propylnorapomorphine (MDO-NPA) given ip or orally (po, by orogastric intubation). […]. […] Activity was monitored for 30 min after injection of DA into the brain, which was done at 10 min after systemic dosing with an S(+)aporphine test compound.
Data are mean activity counts ± SEM (N = 6) for rats given DA into the
medial accumbens after pretreatment with an inhibitor of monoamine oxidas
(MA0), and monitored on EAM for 30 min (aporphine given 10 min before DA
systemicallyintraperitoneally [ip] or orally [po].

[6] = system: dopamine (DA) receptors in the limbic system; assay: Locomotor activity (spontaneous or aroused by (-)APO / (-)NPA), electronic activity monitor; type: in vivo, rat; remark: listed apart in the source
[7] = system: dopamine (DA) receptors in the basal ganglia (corpus striatum); assay: Stereotyped licking and gnawing behavior rating in the rat; type: in vivo
Excerpt: Stereotypy: The mean stereotyped licking and gnawing behavioral rating scheme developed by Tarsy and Baldessarini^8 was used. […]
Stereotypy scores were rated for one hour as described in […]

[8] = system: DA in the corpus striatum (basal ganglia); assay: Head posture (contralateral head deviation) after intrastriatal DA; type: in vivo, rat; conditions: intrastriatal DA 16 μg; aporphine 3 mg/kg systemic (route not given)
[9] = target: T1, Dopamine (DA) sensitive adenylate cyclase (Rattus norvegicus, UniProt P18901); assay: Stimulation of formation of cyclic AMP in rat striatal homogenate; type: biochemical
T1 construct: homogenates of rat corpus striatum; from tissue; host or cells: rat corpus striatum homogenate
T1 sequence (P18901 whole entry): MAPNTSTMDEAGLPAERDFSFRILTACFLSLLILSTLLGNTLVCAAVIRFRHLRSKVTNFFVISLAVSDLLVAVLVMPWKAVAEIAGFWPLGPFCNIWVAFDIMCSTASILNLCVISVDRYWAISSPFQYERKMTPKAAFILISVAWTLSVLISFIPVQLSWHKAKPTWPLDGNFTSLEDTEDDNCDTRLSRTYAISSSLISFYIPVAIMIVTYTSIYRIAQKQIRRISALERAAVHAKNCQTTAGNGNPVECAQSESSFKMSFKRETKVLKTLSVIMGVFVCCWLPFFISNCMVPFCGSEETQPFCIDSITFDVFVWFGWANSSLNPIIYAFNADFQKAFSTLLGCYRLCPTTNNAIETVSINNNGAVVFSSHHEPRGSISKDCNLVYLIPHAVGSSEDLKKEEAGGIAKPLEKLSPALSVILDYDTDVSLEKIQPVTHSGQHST
Excerpt: assayed in homogenates of corpus striatum obtained from rat brain. The
method of assay of the activity of DAsensitive adenylate cyclase by the
rate of formation of cAMP above a basal (no agonist) level is described
under Experimental Section. The data are mean values of cAMP levels in […]

[10] = target: T2, rat liver catechol O-methyl-transferase (COMT) (Rattus norvegicus, UniProt P22734); assay: Isomeric substrate selectivity for rat liver COMT; type: biochemical
T2 construct: partially purified rat liver catechol O-methyl-transferase (COMT); from tissue; host or cells: rat liver, ammonium sulfate precipitation and dialysis
T2 sequence (P22734 1-221 isoform P22734-2): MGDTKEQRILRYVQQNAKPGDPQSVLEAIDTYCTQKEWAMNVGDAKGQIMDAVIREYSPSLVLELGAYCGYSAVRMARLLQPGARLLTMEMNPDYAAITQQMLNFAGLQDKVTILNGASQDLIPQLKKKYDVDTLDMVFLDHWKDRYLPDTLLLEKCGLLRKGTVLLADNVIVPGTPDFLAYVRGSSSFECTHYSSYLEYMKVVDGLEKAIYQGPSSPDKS

[11] = Catalepsy (latency to resume normal posture); type: in vivo, rat; conditions: s.c., maximum 18.0
Method: Catalepsy: This measure of muscle rigidity is assessed by having animals in abnormal body positions and timing their duration of maintaining these. This is done by placing rats on a wire grid placed at a 45° angle to the benchtop, or by placing their forelimbs on a raised horizontal metal bar, and timing the latency to resume a normal posture by stopwatch.
as §2

[12] = Table 4, (+)APO 3.0 mg/kg s.c. after (-)APO 0.3 mg/kg
[13] = Table 4, (+)APO 3.0 mg/kg s.c. after (-)APO 1.0 mg/kg
[14] = Table 4, (+)APO 3.0 mg/kg s.c. after (-)APO 3.0 mg/kg
[15] = Table 4, (+)APO 3.0 mg/kg s.c., (-)APO 0
[16] = Table 5, (-)NPA 0.3 mg/kg + saline
[17] = Table 5, (-)NPA 3.0 mg/kg + saline
[18] = 2.5 min, read-out: cAMP production, % of control

## CCCN1CCc2cccc3c2C1Cc1ccc(O)c(O)c1-3 (racemic) [(±)-NPA, (RS)-N-n-Propylnorapomorphine]
Dopamine Receptors [1]
  IC50: 5 nM
Dopamine Receptors [2]
  IC50: 3.5 nM

## CN1CCc2cccc3c2[C@@H]1Cc1ccc(O)c(O)c1-3 [(+)APO, S(+) isomers of apomorphine (APO)]
[3]; [12]
  Total Activity: 36.2 ± 0.92 percent change
[3]; [13]
  Total Activity: 44.6 ± 0.75 percent change
[3]; [14]
  Total Activity: 62.0 ± 0.48 percent change
[3]; [15]
  Total Activity: -0.62 ± 0.33 percent change
[4]; [12]
  Locomotion: 36.2 ± 4.3 percent change
[4]; [14]
  Locomotion: 42.1 ± 6.3 percent change
[4]; [15]
  Locomotion: -0.84 ± 0.22 percent change
[4]; s.c., (-)APO 0.3 mg/kg
  ID50 to reduce the locomotor activating actions of (-)APO: 4 mg/kg
[4]; spontaneous activity
  ID50, spontaneous locomotor arousal: > 50 mg/kg
[5]; 0.3 mg/kg ip
  activity counts (arousal induced by 16 μg DA in accumbens): 246 ± 41 activity counts
[5]; 1.0 mg/kg ip
  activity counts (arousal induced by 16 μg DA in accumbens): 190 ± 37 activity counts
[5]; 3.0 mg/kg ip
  activity counts (arousal induced by 16 μg DA in accumbens): 125 ± 19 activity counts
[5]; Rattus norvegicus, ip, DA 16 μg in accumbens, read-out: ID50 (the source's name)
  ED50: 4 mg/kg
[5]; ip, DA 16 μg in accumbens
  ID50: 3.6 mg/kg
[6]; [13]
  Locomotion: 43.0 ± 5.2 percent change
[7]; [12]
  Stereotypy Score: 0.89 ± 0.36 rating units
[7]; [13]
  Stereotypy Score: 1.92 ± 0.21 rating units
[7]; [14]
  Stereotypy Score: 2.93 ± 0.32 rating units
[7]; [15]
  Stereotypy Score: 0.32 ± 0.62 rating units
[8]
  Contralateral Head Deviation, Percent of Total: 57.2% of Total
  Contralateral Head Deviation, Time: 412 ± 53 s

## CCCN1CCc2cccc3c2[C@H]1Cc1ccc(O)c(O)c1-3 [(-)NPA, (R)-N-n-propylnorapomorphine]
[3]; Table 3, 0.1 mg/kg, s.c.
  Total Activity: 2.0 ± 1.8 percent change vs. placebo con
[3]; Table 3, 0.3 mg/kg, s.c.
  Total Activity: 2.1 ± 3.2 percent change vs. placebo con
[3]; Table 3, 3.0 mg/kg, s.c.
  Total Activity: 231.4 ± 37 percent change vs. placebo con
[3]; [16]
  Total Activity: 22.1 ± 3.7 percent change
[3]; [17]
  Total Activity: 231.4 ± 37 percent change
[4]; [16]
  Locomotion: 48.1 ± 9.2 percent change
[6]; [17]
  Locomotion: 10.2 ± 6.3 percent change
[9]; 1 μM
  cAMP production: 3.71 ± 0.31 picomoles per 2.5 min
[9]; 5 μM
  cAMP production: 4.57 ± 0.13 picomoles per 2.5 min
[9]; 10 μM
  cAMP production: 5.34 ± 0.27 picomoles per 2.5 min
[9]; 50 μM
  cAMP production: 5.71 ± 0.24 picomoles per 2.5 min
[9]; 100 μM
  cAMP production: 5.56 ± 0.24 picomoles per 2.5 min
[9]; [18]
  cAMP formation, % of control at 1 µM: 150%
  cAMP formation, % of control at 5 µM: 184%
  cAMP formation, % of control at 10 µM: 215%
  cAMP formation, % of control at 50 µM: 230%
  cAMP formation, % of control at 100 µM: 224%
[7]; Table 1, (-) isomer 3 mg/kg, s.c., ± saline, maximum 3.0
  Stereotypy Score: 2.9 ± 0.1 rating units
[7]; Table 3, 0.1 mg/kg, s.c., maximum 3.0
  Stereotypy Score: 1.1 ± 0.2 rating units
[7]; Table 3, 0.3 mg/kg, s.c., maximum 3.0
  Stereotypy Score: 2.0 ± 0.3 rating units
[7]; Table 3, 3.0 mg/kg, s.c., maximum 3.0
  Stereotypy Score: 2.9 ± 0.9 rating units
[7]; Table 3, 5.0 mg/kg, s.c., maximum 3.0
  Stereotypy Score: 3.0 ± 0.0 rating units
[7]; [16]
  Stereotypy Score: 2.0 ± 0.2 rating units
[7]; [17]
  Stereotypy Score: 2.8 ± 0.4 rating units
Dopamine Receptors [1]
  IC50: 2.5 nM
Dopamine Receptors [2]
  IC50: 2 nM
[10]; footnote range
  Vmax (range of two experiments): 8.9-11.1 (pmol/assay)/h
[10]; mean, substrate of rat liver COMT
  Vmax: 10.0 (pmol/assay)/h
[11]; 0.1 mg/kg
  Catalepsy score: 0.5 ± 0.2
[11]; 3.0 mg/kg
  Catalepsy score: 0.8 ± 0.3

Source: patent US4687773A, “(+)-N-N-propylnorapomorphine and selective limbic activity” (priority 1985, dated 1987)
